According to ChEMBL document CHEMBL3608305, “Synergistic activation of quorum sensing in Vibrio harveyi” (Bioorg Med Chem Lett, 2015):
Calls of active or inactive are those of the source. The calls are words filed in the database; no cut-off is given here.

How the values were obtained:
Vibrio harveyi = test: Toxicity in Vibrio harveyi MM32 at >5 uM; type: organism-based; settings: in vivo
[1] = molecular target: Autoinducer 2-binding periplasmic protein LuxP (Vibrio harveyi) (UniProt P54300); test: (§1) Binding affinity to LuxP in Vibrio harveyi MM32 assessed as activation of quorum sensing system after 5 hrs by bioluminescence assay in presence of exogenous synthetic DPD
Chain of Autoinducer 2-binding periplasmic protein LuxP (Vibrio harveyi) (P54300 whole entry): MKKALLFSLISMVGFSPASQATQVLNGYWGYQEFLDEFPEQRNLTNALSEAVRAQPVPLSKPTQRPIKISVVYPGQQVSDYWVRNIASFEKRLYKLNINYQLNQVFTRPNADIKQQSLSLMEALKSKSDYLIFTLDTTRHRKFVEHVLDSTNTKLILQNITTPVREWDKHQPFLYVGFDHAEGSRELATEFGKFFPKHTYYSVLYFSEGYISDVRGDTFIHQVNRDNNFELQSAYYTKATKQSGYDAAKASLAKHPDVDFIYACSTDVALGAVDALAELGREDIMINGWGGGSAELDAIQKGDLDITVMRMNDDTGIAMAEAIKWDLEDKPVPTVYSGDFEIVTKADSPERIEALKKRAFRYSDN

[2] = molecular target: Autoinducer 2-binding periplasmic protein LuxP (Vibrio harveyi, UniProt P54300); test: as §1
Chain of Autoinducer 2-binding periplasmic protein LuxP (P54300 whole entry): as above

[3] = molecular target: Autoinducer 2-binding periplasmic protein LuxP (Vibrio harveyi) (UniProt P54300); test: Binding affinity to LuxP in Vibrio harveyi BB120 assessed as activation of quorum sensing system after 6 hrs by bioluminescence assay; settings: Vibrio campbellii ATCC BAA-1116
[4] = molecular target: Autoinducer 2-binding periplasmic protein LuxP (Vibrio harveyi) (UniProt P54300); test: Binding affinity to LuxP in Vibrio harveyi MM32 assessed as activation of quorum sensing system at 1.5 to 100 uM after 5 hrs by bioluminescence assay in absence of exogenous synthetic DPD

- Activity [1]: Dose-dependent effect
- EC50 [2]: 20 µM
- Activity [3]: Dose-dependent effect
- Activity [4]: inactive
SMILES: O=C(Cc1ccc2ccccc2c1)C(=O)[C@@H](O)CO
- Activity (Vibrio harveyi): Toxic
